Read-outs that look alike come from different tables or passages of the source.
How the values were obtained:
[1] = test system: H14 cells; test: In vitro assay of uptake of [14C]-alanine; type: cell-based, hamster; conditions: Mesocricetus auratus
Procedure: Baby hamster kidney cells (BHK) transfected with the cDNA of human IBAT (H14 cells) are seeded at 60,000 cells/well in 96 well Top-Count tissue culture plates for assays run within in 24 hours of seeding, 30,000 cells/well for assays run within 48 hours, and 10,000 cells/well for assays run within 72 hours.
On the day of assay, the cell monolayer is gently washed once with 100 μl assay buffer (Dulbecco's Modified Eagle's medium with 4.5 g/L glucose+0.2% (w/v) fatty acid free bovine serum albumin-(FAF)BSA). To each well 50 μl of a two-fold concentrate of test compound in assay buffer is added along with 50 μl of 6 μM [^14C]-taurocholate in assay buffer (final concentration of 3 μM [^14C]-taurocholate). The cell culture plates are incubated 2 hours at 37° C. prior to gently washing each well twice with 100 μl 4° C. Dulbecco's phosphate-buffered saline (PBS) containing 0.2% (w/v) (FAF)BSA. The wells are then gently washed once with 100 μl 4° C. PBS without (FAF)BSA. To each 200 μl of liquid scintillation counting fluid is added, the plates are heat sealed and shaken for 30 minutes at room temperature prior to measuring the amount of radioactivity in each well on a Packard Top-Count instrument.
In Vitro Assay of Compounds that Inhibit Uptake of [^14C3-Alanine
The alanine uptake assay is performed in an identical fashion to the taurocholate assay, with the exception that labeled alanine is substituted for the labeled taurocholate.

[2] = test system: Rat Ileal Uptake of [14C]-Taurocholate; test: In vivo assay of rat ileal uptake of [14C]-taurocholate into bile (ileal loop); conditions: for activity at 100 µM: read-out: % of Control Transport of TC in Rat Ileum @ 0.1 mM; for activity at 500 µM: 0.5 mM
Procedure: In Vivo Assay of Compounds that Inhibit Rat Ileal Uptake of [^14C]-Taurocholate into Bile
(See “Metabolism of 3α,7β-dihydroxy-7α-methyl-5β-cholanoic acid and 3α,7β-dihydroxy-7α-methyl-5β-cholanoic acid in hamsters” in Biochimica et Biophysica Acta 833 (1985) 196-202 by Une et al.)
Male wistar rats (200-300 g) are anesthetized with inactin @100 mg/kg. Bile ducts are cannulated with a 10″ length of PE10 tubing. The small intestine is exposed and laid out on a gauze pad. A canulae (⅛″ luer lock, tapered female adapter) is inserted at 12 cm from the junction of the small intestine and the cecum. A slit is cut at 4 cm from this same junction (utilizing a 8 cm length of ileum). 20 ml of warm Dulbecco's phosphate buffered saline, pH 6.5 (PBS) is used to flush out the intestine segment. The distal opening is cannulated with a 20 cm length of silicone tubing (0.02″ I.D.×0.037″ O.D.). The proximal cannulae is hooked up to a peristaltic pump and the intestine is washed for 20 min with warm PBS at 0.25 ml/min. Temperature of the gut segment is monitored continuously. At the start of the experiment, 2.0 ml of control sample ([^14C]-taurocholate @ 0.05 mi/ml with 5 mM cold taurocholate) is loaded into the gut segment with a 3 ml syringe and bile sample collection is begun. Control sample is infused at a rate of 0.25 ml/min for 21 min. Bile samples fractions are collected every 3 minute for the first 27 minutes of the procedure. After the 21 min of sample infusion, the ileal loop is washed out with 20 ml of warm PBS (using a 30 ml syringe), and then the loop is washed out for 21 min with warm PBS at 0.25 ml/min. A second perfusion is initiated as described above but this with test compound being administered as well (21 min administration followed by 21 min of wash out) and bile sampled every 3 min for the first 27 min. If necessary, a third perfusion is performed as above that typically contains the control sample.

[3] = molecular target: T1, human IBAT (Homo sapiens, UniProt Q12908); test: In vitro assay of IBAT-mediated uptake of [14C]-taurocholate (TC) in H14 cells; type: cell-based
T1 construct: expressed in transfected cells; host or cells: Baby hamster kidney (BHK) cells, clone H14
T1 sequence (Q12908 1-348): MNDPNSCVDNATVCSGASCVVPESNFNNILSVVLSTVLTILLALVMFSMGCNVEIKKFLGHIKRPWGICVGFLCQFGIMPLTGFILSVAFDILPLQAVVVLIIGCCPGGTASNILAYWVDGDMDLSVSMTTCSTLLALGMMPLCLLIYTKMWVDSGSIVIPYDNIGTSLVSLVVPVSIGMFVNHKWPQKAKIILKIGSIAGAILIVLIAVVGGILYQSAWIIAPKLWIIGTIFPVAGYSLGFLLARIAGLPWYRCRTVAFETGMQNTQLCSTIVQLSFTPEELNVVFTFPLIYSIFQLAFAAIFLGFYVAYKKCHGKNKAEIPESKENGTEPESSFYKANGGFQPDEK
Method in brief: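 BHK cells stably expressing human IBAT (H14) were incubated 2 h at 37° C with compound and 3 μM final [14C]-taurocholate in DMEM (4.5 g/L glucose) plus 0.2% fatty acid-free BSA. After cold PBS washes, cell-associated radioactivity was measured by scintillation counting.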

[4] = test system: fecal bile acid (FBA); test: Rat gavage assay (fecal bile acid increase); type: in vivo
Procedure: Male Wister rats (275-300 g) are administered IBAT inhibitors using an oral gavage procedure. Drug or vehicle (0.2% Tween 80 in water) is administered once a day (9:00-10:0 a.m.) for 4 days at varying dosages in a final volume of 2 mL per kilogram of body weight. Total fecal samples are collected during the final 48 hours of the treatment period and analyzed for bile acid content using an enzymatic assay as described below. Compound efficacy is determined by comparison of the increase in fecal bile acid (FBA) concentration in treated rats to the mean FBA concentration of rats in the vehicle group.
Measurement of Fecal Bile Acid Concentration (FBA)
Total fecal output from individually housed hamsters was collected for 24 or 48 hours, dried under a stream of nitrogen, pulverized and weighed. Approximately 0.1 gram was weighed out and extracted into an organic solvent (butanol/water). Following separation and drying, the residue was dissolved in methanol and the amount of bile acid present was measured enzymatically using the 3α-hydroxysteroid steroid dehydrogenase reaction with bile acids to reduce NAD. (Reference: Mashige, F., et al. (1981) Clin. Chem. 27, 1352).

[5] = test system: Rabbit Ileal brush border membranes; test: [3H]taurocholate uptake in rabbit brush border membrane vesicles (BBMV); type: biochemical; conditions: read-out: TC-uptake (BBMV) IC(50)
Procedure: [^3H]Taurocholate Uptake in Rabbit Brush Border Membrane Vesicles (BBMV)
Rabbit Ileal brush border membranes were prepared from frozen iheal mucosa by the calcium precipitation method describe by Malathi et al. (Reference: (1979) Biochimica Biophysica Acta, 554, 259). The method for measuring taurocholate was essentially as described by Kramer et al. (Reference: (1992) Biochimica Biophysica Acta, 1111, 93) except the assay volume was 200 μl instead of 100 μl.

[6] = H14 cells, Table 5, read-out: IC50 uM (In vitro Taurocholate Cell Uptake)
[7] = In Vitro Taurocholate Uptake, Table 10, read-out: Human TC IC50
[8] = Rattus norvegicus, read-out: % of Control Transport of TC in Rat Ileum

Compound `CCCC[C@]1(CC)CS(=O)(=O)c2cc(OC)ccc2[C@H](c2ccccc2)[C@@H]1O` [Example 26, (3α,4α,5α) 3-Butyl-3-ethyl-4-hydroxy-8-methoxy-5-phenyl-2,3,4,5-tetrahydrobenzothiepine-1,1-dioxide] has an inhibition at 25 µM [1] of 31%, an activity at 100 µM ([2]; Rattus norvegicus) of 87.9% and an IC50 [3, 6] of 2 µM.

`CC1(C)CS(=O)(=O)c2ccc(N)cc2[C@@H](c2ccccc2)[C@H]1O` [Example 288] gave a melting point of 185 to 186 °C and an inhibition at 6.25 µM ([1]; @ 6.25 μM, read-out: Alanine Uptake Percent Inhibition @ μM) of 10%.

For `CCCC[C@]1(CC)CS(=O)(=O)c2ccccc2[C@H](c2ccccc2)[C@@H]1O` [Example 6c, (3α,4α,5α) 3-Butyl-3-ethyl-4-hydroxy-5-phenyl-2,3,4,5-tetrahydrobenzothiepine-1,1-dioxide], the inhibition at 100 µM [1] was 58.5%, the activity at 400 µM ([2]; Rattus norvegicus, 0.4 mM, read-out: % of Control Transport of TC in Rat Ileum) was 68.8% and the IC50 [3, 6] was 2 µM.

For `CCCCC1(CCCC)CS(=O)(=O)c2ccc(N(C)C)cc2[C@@H](c2ccc(OCCCCC[N+](C)(C)CCCCCC[N+](C)(C)CCCCCOc3ccc([C@@H]4c5cc(N(C)C)ccc5S(=O)(=O)CC(CCCC)(CCCC)[C@@H]4O)cc3)cc2)[C@H]1O` (relative stereo) [Example 1419, [4R-[4a,5a(4R*,5R*)]]-N,N′-bis[5-[4-[3,3-Dibutyl-7-(dimethylamino)-2,3,4,5-tetrahydro-4-hydroxy-1,1-dioxido-1-benzothiepin-5-yl]phenoxy]pentyl]-N,N,N′N′-tetramethyl-1,6-hexanediaminium dichloride], the melting point was 178 to 182 °C, the IC50 [3, 7] was 0.003 µM and the “Delta (micromoles fecal bile acid per day)” value ([4]; dose 2 mg/kg/day) was 28.5 micromoles fecal bile acid per day. The “Delta (micromoles fecal bile acid per day)” value ([4]; dose .016 mg/kg/day) was 5.8 micromoles fecal bile acid per day, the “Delta (micromoles fecal bile acid per day)” value ([4]; dose .08 mg/kg/day) was 10.3 micromoles fecal bile acid per day and the “Delta (micromoles fecal bile acid per day)” value ([4]; dose .4 mg/kg/day) was 13.9 micromoles fecal bile acid per day.

In the case of `CCCCC1(CCCC)CS(=O)(=O)c2ccc(N(C)C)cc2[C@@H](c2ccc(OCCCCCC(C(=O)O)C(=O)O)cc2)[C@H]1O` [Example 1413, (4S-cis)-[5-[4-[3,3-Dibutyl-7-(dimethylamino)-2,3,4,5-tetrahydro-4-hydroxy-1,1-dioxido-1-benzothiepin-5-yl]phenoxy]pentyl]propanedioic acid], the melting point is reported as 118 °C, the IC50 [3, 7] is reported as 0.003 µM and the “Delta (micromoles fecal bile acid per day)” value ([4]; dose 5 mg/kg/day) is reported as 52.3 micromoles fecal bile acid per day. The “Delta (micromoles fecal bile acid per day)” value ([4]; dose .04 mg/kg/day) was 19 micromoles fecal bile acid per day and the “Delta (micromoles fecal bile acid per day)” value ([4]; dose .2 mg/kg/day) was 42.4 micromoles fecal bile acid per day.

With `CCCCC1(CCCC)CS(=O)(=O)c2ccc(N(C)C)cc2[C@@H](c2ccc(OCCCCCOc3cc(C(=O)O)nc(C(=O)O)c3)cc2)[C@H]1O` [Example 1421] the melting point was 143 °C, the IC50 [3, 7] was 0.004 µM and the “Delta (micromoles fecal bile acid per day)” value ([4]; dose 2 mg/kg/day) was 57.8 micromoles fecal bile acid per day. The “Delta (micromoles fecal bile acid per day)” value ([4]; dose .016 mg/kg/day) was 4.7 micromoles fecal bile acid per day, the “Delta (micromoles fecal bile acid per day)” value ([4]; dose .08 mg/kg/day) was 25.3 micromoles fecal bile acid per day and the “Delta (micromoles fecal bile acid per day)” value ([4]; dose .4 mg/kg/day) was 27.7 micromoles fecal bile acid per day.

With `CCCC[C@@]1(CC)C[C@@H](c2ccccc2)c2ccccc2S(=O)(=O)C1` (relative stereo) [Example 9a, cis-3-Butyl-3-ethyl-5-phenyl-2,3,4,5-tetrahydrobenzothiepine-1,1-dioxide] the inhibition at 25 µM [1] was 0%, the activity at 100 µM ([2]; Rattus norvegicus) was 53.7% and the IC50 [3, 6] was 5 µM.

With `CCCCC1(CCCC)CS(=O)(=O)c2ccc(N(C)C)cc2[C@@H](c2ccc(OCc3cccc(CCC(=O)O)n3)cc2)[C@H]1O` [Example 1430, (4R-cis)-6-[[4-[3,3-Dibutyl-7-(dimethylamino)-2,3,4,5-tetrahydro-4-hydroxy-1,1-dioxido-1-benzothiepin-5-yl]phenoxy]methyl]-2-pyridinepropanoic acid] the melting point was 105 to 107 °C, the IC50 [3, 7] was 0.003 µM and the “Delta (micromoles fecal bile acid per day)” value ([4]; dose 2 mg/kg/day) was 51.2 micromoles fecal bile acid per day. The “Delta (micromoles fecal bile acid per day)” value ([4]; dose .016 mg/kg/day) was −5.6 micromoles fecal bile acid per day, the “Delta (micromoles fecal bile acid per day)” value ([4]; dose .08 mg/kg/day) was 20.7 micromoles fecal bile acid per day and the “Delta (micromoles fecal bile acid per day)” value ([4]; dose .4 mg/kg/day) was 50.4 micromoles fecal bile acid per day.

For `CCCC[C@]1(CC)CS(=O)(=O)c2ccccc2[C@@H](c2ccccc2)[C@H]1O` [Example 6d, (3α,4β,5β) 3-Butyl-3-ethyl-4-hydroxy-5-phenyl-2,3,4,5-tetrahydrobenzothiepine-1,1-dioxide], the inhibition at 100 µM [1] was 77.7%, the activity at 150 µM ([2]; Rattus norvegicus, 0.15 mM, read-out: % of Control Transport of TC in Rat Ileum) was 30.2% and the activity at 500 µM [2, 8] was 16.1%. It also gave an EC50 ([2]; rat ileal loop, read-out: TC-uptake Ileal Loop EC(50)) of 31000 nM, an IC50 [3, 6] of 0.6 µM and an IC50 ([3]; Table 6, read-out: TC-uptake (H14 cells) IC(50)) of 0.6 µM. The IC50 [5] was 1500 nM.

In the case of `CCCC[C@]1(CC)CS(=O)(=O)c2ccccc2[C@@H](c2ccccc2)C1=O` (relative stereo) [Example 5b, trans-3-Butyl-3-ethyl-5-phenyl-2,3-dihydro-benzothiepin-(5H) 4-one-1,1-dioxide], the inhibition at 100 µM [1] is reported as 0%, the activity at 500 µM [2, 8] is reported as 72.9 ± 5.4% and the IC50 [3, 6] is reported as 40 µM.
